The values below are quoted from earlier work in patent US6670388B1, “Fatty acid synthase inhibitors” (SmithKline Beecham Corporation, priority 2000, dated 2003).

The test system of data set [1] is bacteria. The following applies: in vivo and in vitro.
Data set [2] deals with FabB & F.
In data set [3] the test system is all three condensing enzymes.
Data set [4] deals with mammalian FASs.

As for `C/C=C/C/C=C/CCC(=O)[C@H]1O[C@H]1C(N)=O` [cerulenin], the antibacterial activity entry in data set [1] was “bactericidal”. Moreover, the “inhibition of FabB & F” value in data set [2] was “potent inhibitor of FabB & F”.
Regarding `C=C/C(C)=C/[C@@]1(C)SC(=O)C(C)=C1O` [thiolactomycin], in data set [1], the antibacterial activity entry is “broad-spectrum antibacterial activity both in vivo and in vitro”. In addition, in data set [3], the “inhibition of condensing enzymes” value was “specifically inhibit all three condensing enzymes”. Also, in data set [4], the “inhibition of mammalian FASs” value is reported as “does not inhibit mammalian FASs”.
